Data reported in ChEMBL document CHEMBL1649545, “Efficacy of triazoles in a murine disseminated infection by Candida krusei” (2009).
Converted amounts (≈) assume the structure as drawn. The source made the active and inactive calls. The rule behind the calls is not given here.

Experiments:
Pichia kudriavzevii [1] = test: Antifungal activity against 5 x 10^7 CFU Candida krusei FMR9728 infected OF1 mouse disseminated infection model assessed as prolongation of mouse survival at 50 mg/kg/day, po for 5 days administered 24 hrs postinfection measured daily for 15 days; assay type: functional, organism-based
Pichia kudriavzevii [2] = test: Antifungal activity against 5 x 10^7 CFU Candida krusei FMR9728 infected OF1 mouse disseminated infection model assessed as prolongation of mouse survival at 100 mg/kg/day, po for 5 days administered 24 hrs postinfection measured daily for 15 days; assay type: functional, organism-based
Pichia kudriavzevii [3] = test: Antifungal activity against 5 x 10^7 CFU Candida krusei FMR9729 infected OF1 mouse disseminated infection model assessed as prolongation of mouse survival at 50 mg/kg/day, po for 5 days administered 24 hrs postinfection measured daily for 15 days; assay type: functional, organism-based
Pichia kudriavzevii [4] = test: Antifungal activity against 5 x 10^7 CFU Candida krusei FMR9729 infected OF1 mouse disseminated infection model assessed as prolongation of mouse survival at 100 mg/kg/day, po for 5 days administered 24 hrs postinfection measured daily for 15 days; assay type: functional, organism-based
Pichia kudriavzevii [5] = test: Antifungal activity against Candida krusei FMR9728 infected OF1 mouse disseminated infection model assessed as reduction in kidney tissue fungal burden at 50 mg/kg/day, po for 5 days administered 24 hrs postinfection measured after 24 hrs post treatment relative to control; assay type: functional, organism-based
Pichia kudriavzevii [6] = test: Antifungal activity against Candida krusei FMR9728 infected OF1 mouse disseminated infection model assessed as reduction in kidney tissue fungal burden at 100 mg/kg/day, po for 5 days administered 24 hrs postinfection measured after 24 hrs post treatment relative to control; assay type: functional, organism-based
Pichia kudriavzevii [7] = test: Antifungal activity against Candida krusei FMR9728 infected OF1 mouse disseminated infection model assessed as reduction in spleen tissue fungal burden at 50 mg/kg/day, po for 5 days administered 24 hrs postinfection measured after 24 hrs post treatment relative to control; assay type: functional, organism-based
Pichia kudriavzevii [8] = test: Antifungal activity against Candida krusei FMR9728 infected OF1 mouse disseminated infection model assessed as reduction in spleen tissue fungal burden at 100 mg/kg/day, po for 5 days administered 24 hrs postinfection measured after 24 hrs post treatment relative to control; assay type: functional, organism-based
Pichia kudriavzevii [9] = test: Antifungal activity against Candida krusei FMR9729 infected OF1 mouse disseminated infection model assessed as reduction in kidney tissue fungal burden at 50 mg/kg/day, po for 5 days administered 24 hrs postinfection measured after 24 hrs post treatment relative to control; assay type: functional, organism-based
Pichia kudriavzevii [10] = test: Antifungal activity against Candida krusei FMR9729 infected OF1 mouse disseminated infection model assessed as reduction in kidney tissue fungal burden at 100 mg/kg/day, po for 5 days administered 24 hrs postinfection measured after 24 hrs post treatment relative to control; assay type: functional, organism-based
Pichia kudriavzevii [11] = test: Antifungal activity against Candida krusei FMR9729 infected OF1 mouse disseminated infection model assessed as reduction in spleen tissue fungal burden at 50 mg/kg/day, po for 5 days administered 24 hrs postinfection measured after 24 hrs post treatment relative to control; assay type: functional, organism-based
Pichia kudriavzevii [12] = test: Antifungal activity against Candida krusei FMR9729 infected OF1 mouse disseminated infection model assessed as reduction in spleen tissue fungal burden at 100 mg/kg/day, po for 5 days administered 24 hrs postinfection measured after 24 hrs post treatment relative to control; assay type: functional, organism-based
Pichia kudriavzevii [13] = test: Antifungal activity against Candida krusei FMR9728 by M27-A2 broth dilution method; assay type: functional
Pichia kudriavzevii [14] = test: Antifungal activity against Candida krusei FMR9729 by M27-A2 broth dilution method; assay type: functional
Pichia kudriavzevii [15] = test: Antifungal activity against 5 x 10^7 CFU Candida krusei FMR9728 infected OF1 mouse disseminated infection model assessed as prolongation of mouse survival at 60 mg/kg/day, po for 5 days administered 24 hrs postinfection measured daily for 15 days; assay type: functional, organism-based
Pichia kudriavzevii [16] = test: Antifungal activity against 5 x 10^7 CFU Candida krusei FMR9729 infected OF1 mouse disseminated infection model assessed as prolongation of mouse survival at 10 mg/kg/day, iv for 5 days administered 24 hrs postinfection measured daily for 15 days; assay type: functional, organism-based
Pichia kudriavzevii [17] = test: Antifungal activity against 5 x 10^7 CFU Candida krusei FMR9729 infected OF1 mouse disseminated infection model assessed as prolongation of mouse survival at 20 mg/kg/day, iv for 5 days administered 24 hrs postinfection measured daily for 15 days; assay type: functional, organism-based
Pichia kudriavzevii [18] = test: Antifungal activity against 5 x 10^7 CFU Candida krusei FMR9729 infected OF1 mouse disseminated infection model assessed as prolongation of mouse survival at 40 mg/kg/day, po for 5 days administered 24 hrs postinfection measured daily for 15 days; assay type: functional, organism-based
Pichia kudriavzevii [19] = test: Antifungal activity against 5 x 10^7 CFU Candida krusei FMR9729 infected OF1 mouse disseminated infection model assessed as prolongation of mouse survival at 60 mg/kg/day, po for 5 days administered 24 hrs postinfection measured daily for 15 days; assay type: functional, organism-based
Pichia kudriavzevii [20] = test: Antifungal activity against Candida krusei FMR9728 infected OF1 mouse disseminated infection model assessed as reduction in kidney tissue fungal burden at 10 mg/kg/day, iv for 5 days administered 24 hrs postinfection measured after 24 hrs post treatment relative to control; assay type: functional, organism-based
Pichia kudriavzevii [21] = test: Antifungal activity against Candida krusei FMR9728 infected OF1 mouse disseminated infection model assessed as reduction in kidney tissue fungal burden at 20 mg/kg/day, iv for 5 days administered 24 hrs postinfection measured after 24 hrs post treatment relative to control; assay type: functional, organism-based
Pichia kudriavzevii [22] = test: Antifungal activity against Candida krusei FMR9728 infected OF1 mouse disseminated infection model assessed as reduction in kidney tissue fungal burden at 40 mg/kg/day, po for 5 days administered 24 hrs postinfection measured after 24 hrs post treatment relative to control; assay type: functional, organism-based
Pichia kudriavzevii [23] = test: Antifungal activity against Candida krusei FMR9728 infected OF1 mouse disseminated infection model assessed as reduction in kidney tissue fungal burden at 60 mg/kg/day, po for 5 days administered 24 hrs postinfection measured after 24 hrs post treatment relative to control; assay type: functional, organism-based
Pichia kudriavzevii [24] = test: Antifungal activity against Candida krusei FMR9728 infected OF1 mouse disseminated infection model assessed as reduction in spleen tissue fungal burden at 10 mg/kg/day, iv for 5 days administered 24 hrs postinfection measured after 24 hrs post treatment relative to control; assay type: functional, organism-based
Pichia kudriavzevii [25] = test: Antifungal activity against Candida krusei FMR9728 infected OF1 mouse disseminated infection model assessed as reduction in spleen tissue fungal burden at 20 mg/kg/day, iv for 5 days administered 24 hrs postinfection measured after 24 hrs post treatment relative to control; assay type: functional, organism-based
Pichia kudriavzevii [26] = test: Antifungal activity against Candida krusei FMR9728 infected OF1 mouse disseminated infection model assessed as reduction in spleen tissue fungal burden at 40 mg/kg/day, po for 5 days administered 24 hrs postinfection measured after 24 hrs post treatment relative to control; assay type: functional, organism-based
Pichia kudriavzevii [27] = test: Antifungal activity against Candida krusei FMR9728 infected OF1 mouse disseminated infection model assessed as reduction in spleen tissue fungal burden at 60 mg/kg/day, po for 5 days administered 24 hrs postinfection measured after 24 hrs post treatment relative to control; assay type: functional, organism-based
Pichia kudriavzevii [28] = test: Antifungal activity against Candida krusei FMR9729 infected OF1 mouse disseminated infection model assessed as reduction in kidney tissue fungal burden at 10 mg/kg/day, iv for 5 days administered 24 hrs postinfection measured after 24 hrs post treatment relative to control; assay type: functional, organism-based
Pichia kudriavzevii [29] = test: Antifungal activity against Candida krusei FMR9729 infected OF1 mouse disseminated infection model assessed as reduction in kidney tissue fungal burden at 20 mg/kg/day, iv for 5 days administered 24 hrs postinfection measured after 24 hrs post treatment relative to control; assay type: functional, organism-based
Pichia kudriavzevii [30] = test: Antifungal activity against Candida krusei FMR9729 infected OF1 mouse disseminated infection model assessed as reduction in kidney tissue fungal burden at 40 mg/kg/day, po for 5 days administered 24 hrs postinfection measured after 24 hrs post treatment relative to control; assay type: functional, organism-based
Pichia kudriavzevii [31] = test: Antifungal activity against Candida krusei FMR9729 infected OF1 mouse disseminated infection model assessed as reduction in kidney tissue fungal burden at 60 mg/kg/day, po for 5 days administered 24 hrs postinfection measured after 24 hrs post treatment relative to control; assay type: functional, organism-based
Pichia kudriavzevii [32] = test: Antifungal activity against Candida krusei FMR9729 infected OF1 mouse disseminated infection model assessed as reduction in spleen tissue fungal burden at 10 mg/kg/day, iv for 5 days administered 24 hrs postinfection measured after 24 hrs post treatment relative to control; assay type: functional, organism-based
Pichia kudriavzevii [33] = test: Antifungal activity against Candida krusei FMR9729 infected OF1 mouse disseminated infection model assessed as reduction in spleen tissue fungal burden at 20 mg/kg/day, iv for 5 days administered 24 hrs postinfection measured after 24 hrs post treatment relative to control; assay type: functional, organism-based
Pichia kudriavzevii [34] = test: Antifungal activity against Candida krusei FMR9729 infected OF1 mouse disseminated infection model assessed as reduction in spleen tissue fungal burden at 40 mg/kg/day, po for 5 days administered 24 hrs postinfection measured after 24 hrs post treatment relative to control; assay type: functional, organism-based
Pichia kudriavzevii [35] = test: Antifungal activity against Candida krusei FMR9729 infected OF1 mouse disseminated infection model assessed as reduction in spleen tissue fungal burden at 60 mg/kg/day, po for 5 days administered 24 hrs postinfection measured after 24 hrs post treatment relative to control; assay type: functional, organism-based
Pichia kudriavzevii [36] = test: Antifungal activity against 5 x 10^7 CFU Candida krusei FMR9728 infected OF1 mouse disseminated infection model assessed as prolongation of mouse survival at 10 mg/kg/day, iv for 5 days administered 24 hrs postinfection measured daily for 15 days; assay type: functional, organism-based
Pichia kudriavzevii [37] = test: Antifungal activity against 5 x 10^7 CFU Candida krusei FMR9728 infected OF1 mouse disseminated infection model assessed as prolongation of mouse survival at 20 mg/kg/day, iv for 5 days administered 24 hrs postinfection measured daily for 15 days; assay type: functional, organism-based
Pichia kudriavzevii [38] = test: Antifungal activity against 5 x 10^7 CFU Candida krusei FMR9728 infected OF1 mouse disseminated infection model assessed as prolongation of mouse survival at 40 mg/kg/day, po for 5 days administered 24 hrs postinfection measured daily for 15 days; assay type: functional, organism-based

CC[C@@H]([C@H](C)O)n1ncn(-c2ccc(N3CCN(c4ccc(OC[C@@H]5CO[C@@](Cn6cncn6)(c6ccc(F)cc6F)C5)cc4)CC3)cc2)c1=O [POSACONAZOLE]
Activity (Pichia kudriavzevii [1]): Active | Activity (Pichia kudriavzevii [2]): Active | Activity (Pichia kudriavzevii [3]): Active | Activity (Pichia kudriavzevii [4]): Active | Activity (Pichia kudriavzevii [5]): Active | Activity (Pichia kudriavzevii [6]): Active | Activity (Pichia kudriavzevii [7]): Active | Activity (Pichia kudriavzevii [8]): Active | Activity (Pichia kudriavzevii [9]): Active | Activity (Pichia kudriavzevii [10]): Active | Activity (Pichia kudriavzevii [11]): Active | Activity (Pichia kudriavzevii [12]): Active | MFC (Pichia kudriavzevii [13]): 1 µg/mL (≈ 1.43 µM) | MIC50 (Pichia kudriavzevii [13]): 0.125 µg/mL (≈ 0.178 µM) | MFC (Pichia kudriavzevii [14]): 2 µg/mL (≈ 2.85 µM) | MIC50 (Pichia kudriavzevii [14]): 0.25 µg/mL (≈ 0.357 µM)

C[C@@H](c1ncncc1F)[C@](O)(Cn1cncn1)c1ccc(F)cc1F [VORICONAZOLE]
Activity (Pichia kudriavzevii [15]): Active | Activity (Pichia kudriavzevii [16]): Active | Activity (Pichia kudriavzevii [17]): Active | Activity (Pichia kudriavzevii [18]): Active | Activity (Pichia kudriavzevii [19]): Active | Activity (Pichia kudriavzevii [20]): inactive | Activity (Pichia kudriavzevii [21]): inactive | Activity (Pichia kudriavzevii [22]): Active | Activity (Pichia kudriavzevii [23]): Active | Activity (Pichia kudriavzevii [24]): inactive | Activity (Pichia kudriavzevii [25]): inactive | Activity (Pichia kudriavzevii [26]): Active | Activity (Pichia kudriavzevii [27]): Active | Activity (Pichia kudriavzevii [28]): inactive | Activity (Pichia kudriavzevii [29]): inactive | Activity (Pichia kudriavzevii [30]): inactive | Activity (Pichia kudriavzevii [31]): Active | Activity (Pichia kudriavzevii [32]): inactive | Activity (Pichia kudriavzevii [33]): inactive | Activity (Pichia kudriavzevii [34]): inactive | Activity (Pichia kudriavzevii [35]): Active | MFC (Pichia kudriavzevii [13]): 16 µg/mL (≈ 45.8 µM) | MIC50 (Pichia kudriavzevii [13]): 0.125 µg/mL (≈ 0.358 µM) | MFC (Pichia kudriavzevii [14]): > 16 µg/mL | MIC50 (Pichia kudriavzevii [14]): 0.25 µg/mL (≈ 0.716 µM) | Activity (Pichia kudriavzevii [36]): Active | Activity (Pichia kudriavzevii [37]): Active | Activity (Pichia kudriavzevii [38]): Active
